# Assay results reported in patent US5776461A, “Cosmetic compositions containing phytovitamin D” (Chesebrough-Pond's USA Co., Division of Conopco, Inc., priority 1996, dated 1998).
# “Also recorded” adds a separate entry of the source.
# Key:
# HL-60 cells = assay: HL-60 cell differentiation assay (nonspecific esterase expression); type: cell-based; conditions: for HL-60 differentiation activity (in words): pure vitamin D compounds; for % differentiation: 48 hrs
# Text: This test can be utilized to assess the vitamin D content of plant extracts after converting the glycosides and other hydroxylated forms of vitamin D to 1,25-(OH)2 D. One can achieve this by following the procedure: [drawing 2] Glycosidases cleave vitamin D glycosides to the aglycone form (free steroid form). […] This can be again extracted into chloroform phase and redissolved in ethanol and tested in the HL-60 cell differentiation assay. Using this procedure, the glycosylated and nonglycosylated forms of 25-D and 1,25-(OH)2 D of both vitamin D2 and D3 can be quantitated in HL-60 cell differentiation assay.
# a. Plant Extract preparation: The plant extracts are prepared by extracting the dry plant powders with ethanol or other solvents by stirring 1 part of the plant material with 5 to 10 parts of the solvent for 3 to 18 hours at room temperature. Suitable solvents are described hereinbelow. The extracts are clarified by filtration, then dried by evaporation to obtain a dried plant extract.
# b. Treatment of Dried Plant Extracts with Glycosidase: 50 mg of dried plant extract are resuspended in 4 ml citrate-phosphate buffer and incubated overnight with a glycosidase enzyme (e.g., from an almond meal extract). After incubation, the mixture is extracted with chloroform. The chloroform phase containing the nonglycosylated vitamin D compounds is dried and resuspended in ethanol at a concentration of 5 mg/ml of ethanol.
# c. Hydroxylase Treatment of product of step (b) (Non-Glycosylated Vitamin D Compounds): Human keratinocytes in culture express high amounts of 25(OH) vitamin D 1-a hydroxylase activity. For converting into the 1,25-(OH)2 D, which is detected by the product of step (b) in the HL-60 assay, is treated with a keratinocyte homogenate for 1 hour at 37° C. (50 μl of the product of step b with 1 ml of cell homogenate containing 100-200 μg cell protein). After the treatment, the mixture is extracted with chloroform:methanol (1:1), the chloroform phase is dried down, resuspended in ethanol and used in the HL-60 cell differentiation assay.
# d. HL-60 Cell Differentiation Assay: The differentiation of HL-60 cells can be assessed by a simple cytochemical method for the expression of non-specific esterase activity (expressed only in the differentiated monocyte/macrophage phenotype) using α-naphthyl acetate as a substrate. HL-60 cell line is obtained (e.g. from American Type Culture Collection (ATCC)) and cultures are established in the laboratory (e.g. using RPMI medium containing 20% fetal calf serum (FCS)). For incubation with the different plant extracts, cells are washed in phosphate buffered saline (PBS), then resuspended in RPMI medium containing 10% FCS and plated at a density of 750,000 cells per 1 ml in 6 well plates. The plates are then treated with either standard 1,25-(OH)2 D (0.1 to 100 nM) or the different plant extracts in ethanol, using a maximum ethanol concentration of 5 μl/ml of medium. The cells are treated for 48 hrs before processing for the esterase cytochemical assay.
# Expression of nonspecific esterase in HL-60 cells is determined after mounting the cells onto slides using Cytospin. The slides are then fixed in citrateacetone-methanol for 1 min at room temperature, washed in deionized water and air dried for 20 min. The substrate solution for esterase is prepared according to the procedure provided by Sigma by adding 1 capsule of Fast Blue RR salt to 50 ml Trizma buffer (pH 7.6)and 2 ml of α-naphthyl acetate solution. The slides are incubated at 37° C. in this solution for 30 min in the dark. The slides are washed for 3 min in water, counterstained using Mayer's Hematoxylin solution air dried and viewed under microscope. The number of cells showing dark brown precipitate indicating esterase activity is counted and calculated as a percent of the total number of cells in 6 different areas of the slide (approximately 500 total cells).
# [1] = system: adult human keratinocytes; assay: cornified envelope formation of adult human keratinocytes; type: cell-based; conditions: Table 6; no almond meal extract, 48 hrs; 1,25-OH2 D at 1 nM
# Procedure: In this method, keratinocytes were treated with the various extracts dissolved in ethanol (as described for the HL-60 assay) for 48 hrs in the presence of 5 uCi of 35S methionine included in the medium. The labelled methionine gets incorporated into the newly synthesized proteins during this 48 hr. period, including the proteins required for the formation of cornified envelopes. […] This treatment allows Ca to flow into the cells, maximally activate the enzyme transglutaminase and crosslinks all the labelled cornified envelope precursor proteins to form labelled cornified envelopes. The cells were then dissolved in 2%SDS/40 mM DTT, and the amount of insoluble cornified envelopes was quantitated by scintillation counting after separating from the soluble proteins by filtration on 0.2 micron filters.
# [2] = system: vitamin D binding protein; conditions: 25-D = 100%; cited from earlier work
# keratinocyte = conditions: cited from earlier work
# [3] = system: Cultured Human Keratinocytes; conditions: cited from earlier work
Compound,HL-60 differentiation activity (in words) (HL-60 cells),% differentiation (HL-60 cells; 0.1 nM) [%],% differentiation (HL-60 cells; 1 nM) [%],% differentiation (HL-60 cells; 10 nM) [%],% differentiation (HL-60 cells; 100 nM) [%],detection (cross-reactivity) in vitamin D binding assay [2] [%],further results
"C=C1/C(=C\C=C2/CCC[C@]3(C)[C@@H]([C@H](C)CCC(O)C(C)(C)O)CC[C@@H]23)C[C@@H](O)CC1O (stereo partly drawn) [1,24,25-D(OH)3]",inactive at all concentrations,,,,,,
"C=C1/C(=C\C=C2/CCC[C@]3(C)[C@@H]([C@H](C)CCCC(C)(C)O)CC[C@@H]23)C[C@@H](O)C[C@@H]1O [1,25-(OH)2 D, 1,25-Dihydroxyvitamin D3]",induces HL-60 cell differentiation in a dose-dependent manner; also recorded: promoted,5,50,90,95,4,"lowest concentration at which differentiation ability could be detected (HL-60 cells; HL-60, 48 hrs): 0.1 nM; EC50 (HL-60 cells; HL-60, 48 hrs, read-out: concentration for half maximal differentiation): 1 nM; cornified envelope formation, no hydrolysis [1]: 207.6 % of control"
"C=C1CC[C@H](O)C/C1=C/C=C1\CCC[C@]2(C)[C@@H]([C@H](C)CCC(O)C(C)(C)O)CC[C@@H]12 (stereo partly drawn) [24,25(OH)2 D]",,,,,,70,
"C=C1CC[C@H](O)C/C1=C/C=C1\CCC[C@]2(C)[C@@H]([C@H](C)CCCC(C)(C)O)CC[C@@H]12 [25-D, 25-hydroxycholecalciferol]",inactive at all concentrations,,0,0,0,100,HL-60 differentiation activity (in words) (HL-60 cells; listed as 25D): do not induce its differentiation
"C=C1CC[C@H](O)C/C1=C/C=C1\CCC[C@]2(C)[C@@H]([C@H](C)CCCC(C)C)CC[C@@H]12 [Vitamin D3, cholecalciferol]",,0,0,0,0,,keratinocyte prodifferentiating activity (in words) (keratinocyte; applied topically to skin): neither has keratinocyte prodifferentiating activity; conversion in skin to 25-D (in words) [3]: nor is it converted in the skin to 25-D
Vitamin D,,,,,,0.4,HL-60 differentiation activity (in words) (HL-60 cells; listed as non-hydroxylated vitamin D): inactive at all concentrations; HL-60 differentiation activity (in words) (HL-60 cells; listed as nonhydroxylated vitamin D): do not induce its differentiation; biological activity (in words) (keratinocyte; vitamin D per se): biologically inactive
